Measurements: patent US20070066632A1, “Fused bicyclic inhibitors of TGFbeta” (Scios, Inc., priority 2005, published 2007)

Each molecule was assayed against T1, TGFβ R1 (Homo sapiens, UniProt P36897) (assay: TGFβ R1 autophosphorylation protocol). Settings: 10 uM ATP, 170 nM TGFβ R1, 20 minutes at room temperature; read-out: IC50 for Kinase Inhibition.
T1 sequence (P36897 34-503): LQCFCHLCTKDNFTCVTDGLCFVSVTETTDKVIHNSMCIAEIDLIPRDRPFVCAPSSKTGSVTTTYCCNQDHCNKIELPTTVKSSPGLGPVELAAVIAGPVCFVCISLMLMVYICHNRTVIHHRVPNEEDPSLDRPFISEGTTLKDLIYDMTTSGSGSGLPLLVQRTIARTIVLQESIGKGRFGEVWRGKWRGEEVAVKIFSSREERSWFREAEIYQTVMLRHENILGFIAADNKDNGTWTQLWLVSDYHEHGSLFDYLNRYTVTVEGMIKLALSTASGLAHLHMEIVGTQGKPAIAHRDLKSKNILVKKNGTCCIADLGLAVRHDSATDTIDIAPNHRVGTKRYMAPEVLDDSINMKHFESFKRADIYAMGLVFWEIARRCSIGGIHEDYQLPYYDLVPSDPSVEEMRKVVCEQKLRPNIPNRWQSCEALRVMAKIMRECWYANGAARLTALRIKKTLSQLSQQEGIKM
Assay type: biochemical
Description: The compounds of the invention were tested for their ability to inhibit TGFβ by a TGFβ R^1 autophosphorylation protocol. This was conducted as follows: Compound dilutions and reagents were prepared fresh daily. Compounds were diluted from DMSO stock solutions to 2 times the desired assay concentration, keeping final DMSO concentration in the assay less than or equal to 1%. TGFβ R1 was diluted to 4 times the desired assay concentration in buffer+DTT. ATP was diluted into 4× reaction buffer, and gamma-^33P-ATP was added at 60 uCi/mL.
The assay was performed by adding 10 ul of the enzyme to 20 ul of the compound solution. The reaction was initiated by the addition of 10 ul of ATP mix. Final assay conditions included 10 uM ATP, 170 nM TGFβ R1, and […] in 20 mM MOPS, pH7. The reactions were incubated at room temperature for 20 minutes. The reactions were stopped by transferring 23 ul of reaction mixture onto a phosphocellulose 96-well filter plate, which had been pre-wetted with 15 ul of 0.25M H3PO4 per well. After 5 minutes, the wells were washed 4× with 75 mM H3PO4 and once with 95% ethanol. The plate was dried, scintillation cocktail was added to each well, and the wells were counted in a Packard TopCount microplate scintillation counter.

Compared with `CC(O)CNC(=O)c1cnccc1Nc1nc(-c2cc(Cl)ccc2F)nc2nc(NCCN(C)C)ccc12` (stereo not shown) [Compound 6], `CNC(=O)c1cnccc1Nc1nc(-c2cc(Cl)ccc2F)nc2nc(NCCN(C)C)ccc12` [Compound 5] is 2-fold lower in IC50: 12200 nM for the first, 6040 nM for the second.

Going from `CNC(=O)c1cnccc1Nc1nc(-c2cc(Cl)ccc2F)nc2nc(N)ccc12` [Compound 4] to `C[C@H](O)CNC(=O)c1cnccc1Nc1nc(-c2cc(Cl)ccc2F)nc2nc(N)ccc12` [Compound 10], the IC50 rises from 30 nM to 5010 nM (170-fold).

Going from `COC(=O)c1cnccc1Nc1nc(-c2cc(Cl)ccc2F)nc2ncccc12` [Compound 11] to `CCOC(=O)c1cnccc1Nc1nc(-c2cc(Cl)ccc2F)nc2ncccc12` [Compound 13], the IC50 falls from 1370 nM to 530 nM (2.6-fold). The second is the more potent here.

Compared with `CNC(=O)c1cnccc1Nc1nc(-c2cc(Cl)ccc2F)nc2nc(NCCOC)ccc12` [Compound 7], `CNC(=O)c1cnccc1Nc1nc(-c2cc(Cl)ccc2F)nc2ncccc12` [Compound 2] is 14-fold lower in IC50: 980 nM for the first, 70 nM for the second. The second is the more potent here.

`COc1ccc(CNc2ccc3c(Nc4ccncc4C(=O)NCCCN4CCOCC4)nc(-c4cc(Cl)ccc4F)nc3n2)cc1` [Compound 18] and `COc1ccc(CNc2ccc3c(Nc4ccncc4C(=O)NC4CC4)nc(-c4cc(Cl)ccc4F)nc3n2)cc1` [Compound 8] are within 1.5-fold of each other in IC50: 990 nM for the first, 1400 nM for the second.

First: O=C(O)c1cnccc1Nc1nc(-c2cc(Cl)ccc2F)nc2ncccc12 [Compound 12]
Second: NC(=O)c1cnccc1Nc1nc(-c2cc(Cl)ccc2F)nc2ncccc12 [Compound 1]
The IC50 of the first is 12-fold higher: 230 nM for the first, 20 nM for the second.

`COC(=O)c1cnccc1Nc1nc(-c2cc(Cl)ccc2F)nc2nc(N(Cc3ccc(OC)cc3)Cc3ccc(OC)cc3)ccc12` [Compound 16] and `COc1ccc(CN(Cc2ccc(OC)cc2)c2ccc3c(Nc4ccncc4C(=O)O)nc(-c4cc(Cl)ccc4F)nc3n2)cc1` [Compound 15] are within 1.5-fold of each other in IC50: 745 nM for the first, 569 nM for the second.

Going from `Nc1ccc2c(Nc3ccncc3C(=O)NC3CC3)nc(-c3cc(Cl)ccc3F)nc2n1` [Compound 9] to `CN(Cc1ccccc1)c1ccc2c(Nc3ccncc3C(=O)O)nc(-c3cc(Cl)ccc3F)nc2n1` [Compound 14], the IC50 falls from 2700 nM to 225 nM (12-fold).

For `CNC(=O)c1cnccc1Nc1nc(-c2cc(Cl)ccc2NC)nc2ncccc12` [Compound 3], the IC50 was 1600 nM.

The molecules below were run on HCV replicons (HCV type 1b NS3-NS5B) in Huh-Luc cells (assay: HCV replicon assay (Huh-7 luc/neo, luciferase reporter)). Settings: Hepatitis C virus, Huh-7, 72 h, incubation of three days, luciferase activity.
Assay type: cell-based
Excerpt: The pyrido[2,3-d]pyrimidine compounds of the present invention were examined for activity in the inhibition of HCV RNA replication in a cellular assay. […] The cellular assay was based on a bicistronic expression construct, as described by Lohmann et al. (1999) Science vol. 285 pp. 110-113 with modifications described by Krieger et al. (2001) Journal of Virology 75: 4614-4624, in a multi-target screening strategy. In essence, the method was as follows.
The assay utilized the stably transfected cell line Huh-7 luc/neo (hereafter referred to as Huh-Luc). […]
The replicon cells were plated in 384-well plates in the presence of the test and control compounds which were added in various concentrations. Following an incubation of three days, HCV replication was measured by assaying luciferase activity (using standard luciferase assay substrates and reagents and a Perkin Elmer ViewLux™, ultraHTS microplate imager). […] The inhibitory activity of the compound on luciferase activity was monitored on the Huh-Luc cells, enabling a dose-response curve for each test compound. […]
The replicon cells are plated in 384 well plates in the presence of the test and control compounds which are added in various concentrations. […] The inhibitory activity of the compound on luciferase activity is monitored on the Huh-Luc cells, enabling a dose-response curve for each test compound.

Going from `CNC(=O)c1cnccc1Nc1nc(-c2cc(Cl)ccc2F)nc2ncccc12` [Compound 2] to `NC(=O)c1cnccc1Nc1nc(-c2cc(Cl)ccc2F)nc2ncccc12` [Compound 1], the EC50 falls from 11.9 µM to 0.76 µM (16-fold).
